Measured values published in PubChem BioAssay AID330 (DTP/NCI, 2004).
Several values for one entry are separate records, joined by “and”; a condition that tells them apart may be missing. Identical values can stand only once. Toxic doses and inconclusive results are not listed.

System: P388 leukemia ip, CD2F1 mice, survival T/C
Test: NCI In Vivo Anticancer Drug Screen. Data for tumor model P388 Leukemia (intraperitoneal) in CD2F1 (CDF1) mice
Conditions: endpoint: median survival time, higher = longer survival
Outline: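 Mice carrying the transplanted tumor received test compound or vehicle. Survival was recorded in each group, and the value is the treated-group measurement divided by that of the vehicle-treated control group.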

[1] = dose: 50.0 mg/kg/injection, schedule: Q01DX009 (ip), vehicle: saline
[2] = dose: 100.0 mg/kg/injection, schedule: Q01DX009 (ip), vehicle: saline
[3] = dose: 200.0 mg/kg/injection, schedule: Q01DX009 (ip), vehicle: saline
[4] = dose: 100.0 mg/kg/injection, schedule: Q01DX001 (ip), vehicle: Klucel (hydroxypropylcellulose) (HPC)
[5] = dose: 200.0 mg/kg/injection, schedule: Q01DX001 (ip), vehicle: Klucel (hydroxypropylcellulose) (HPC)
[6] = dose: 400.0 mg/kg/injection, schedule: Q01DX001 (ip), vehicle: Klucel (hydroxypropylcellulose) (HPC)
[7] = dose: 50.0 mg/kg/injection, schedule: Q01DX005 (ip), vehicle: saline with Tween-80
[8] = dose: 100.0 mg/kg/injection, schedule: Q01DX005 (ip), vehicle: saline with Tween-80
[9] = dose: 200.0 mg/kg/injection, schedule: Q01DX005 (ip), vehicle: saline with Tween-80
[10] = dose: 50.0 mg/kg/injection, schedule: Q01DX009 (ip), vehicle: saline with Tween-80
[11] = dose: 100.0 mg/kg/injection, schedule: Q01DX009 (ip), vehicle: saline with Tween-80
[12] = dose: 100.0 mg/kg/injection, schedule: Q01DX001 (ip), vehicle: saline with Tween-80
[13] = dose: 60.0 mg/kg/injection, schedule: Q01DX005 (ip), vehicle: saline with Tween-80
[14] = dose: 120.0 mg/kg/injection, schedule: Q01DX005 (ip), vehicle: saline with Tween-80
[15] = dose: 240.0 mg/kg/injection, schedule: Q01DX005 (ip), vehicle: saline with Tween-80
[16] = dose: 200.0 mg/kg/injection, schedule: Q01DX009 (ip), vehicle: saline with Tween-80

CNC(=S)N/N=C(/C)CSCC(=O)OC
T/C [1]: 100 % of control | T/C [2]: 92 % of control | T/C [3]: 91 % of control

CC1=CC(C)=Nc2ccccc2N1
T/C [1]: 103 % of control | T/C [2]: 99 % of control and 101 % of control | T/C [3]: 94 % of control

NC(=S)N/N=C/c1c(Br)nc2sccn12
T/C [4]: 97 % of control | T/C [5]: 89 % of control | T/C [6]: 89 % of control

COc1ccc2c(c1OC)C[N+]1([O-])CCc3cc4c(cc3C1C2)OCO4 (stereo not given)
T/C (dose: 0.63 mg/kg/injection, schedule: Q01DX009 (ip), vehicle: distilled water + Tween-80): 91 % of control | T/C (dose: 1.25 mg/kg/injection, schedule: Q01DX009 (ip), vehicle: distilled water + Tween-80): 92 % of control | T/C (dose: 2.5 mg/kg/injection, schedule: Q01DX009 (ip), vehicle: distilled water + Tween-80): 92 % of control | T/C (dose: 5.0 mg/kg/injection, schedule: Q01DX009 (ip), vehicle: distilled water + Tween-80): 90 % of control | T/C (dose: 10.0 mg/kg/injection, schedule: Q01DX009 (ip), vehicle: distilled water + Tween-80): 97 % of control | T/C (dose: 20.0 mg/kg/injection, schedule: Q01DX009 (ip), vehicle: distilled water + Tween-80): 106 % of control

CSCNC(=O)Nc1ccccc1
T/C [7]: 98 % of control | T/C [8]: 100 % of control | T/C [9]: 104 % of control

CCCCCCCCCCCCCCCC(O)S(=O)(=O)O (stereo not given)
T/C (dose: 25.0 mg/kg/injection, schedule: Q01DX009 (ip), vehicle: saline with Tween-80): 100 % of control | T/C [10]: 100 % of control | T/C [11]: 100 % of control

O=c1c(CSc2c(-c3ccccc3)c(=O)c2=O)c(-c2ccccc2)c1=O
T/C [12]: 101 % of control | T/C (dose: 200.0 mg/kg/injection, schedule: Q01DX001 (ip), vehicle: saline with Tween-80): 104 % of control | T/C (dose: 400.0 mg/kg/injection, schedule: Q01DX001 (ip), vehicle: saline with Tween-80): 95 % of control

O=C(Nc1ccc(F)cc1)N1CCCCC1
T/C [13]: 91 % of control | T/C [14]: 99 % of control | T/C [15]: 97 % of control

Nc1c(Br)cc(Br)c2c1C(=O)c1c(cccc1S(=O)(=O)O)C2=O
T/C [7]: 102 % of control | T/C [8]: 98 % of control | T/C [9]: 107 % of control

CC(C)(Br)C(=O)/C=C/c1ccccc1
T/C [13]: 105 % of control | T/C [14]: 115 % of control

O=NNc1ccc([N+](=O)[O-])cc1
T/C (dose: 3.12 mg/kg/injection, schedule: Q01DX009 (ip), vehicle: water): 102 % of control | T/C (dose: 6.25 mg/kg/injection, schedule: Q01DX009 (ip), vehicle: water): 112 % of control and 121 % of control | T/C (dose: 25.0 mg/kg/injection, schedule: Q01DX009 (ip), vehicle: water): 152 % of control | T/C (dose: 50.0 mg/kg/injection, schedule: Q01DX009 (ip), vehicle: water): 159 % of control

OCC1OC2C(NC(=S)N2c2ccccc2)C(O)C1O (stereo not given)
T/C [13]: 101 % of control | T/C [14]: 98 % of control | T/C [15]: 104 % of control

O=[N+]([O-])c1ccc(OCS(=O)(=O)c2ccc(Cl)cc2)cc1
T/C [10]: 95 % of control | T/C [11]: 92 % of control | T/C [16]: 95 % of control

NC(=S)N/N=C/c1c(-c2ccc(-c3ccccc3)cc2)nc2n1CCS2
T/C (dose: 100.0 mg/kg/injection, schedule: Q04DX002 (ip), vehicle: Klucel (hydroxypropylcellulose) (HPC)): 98 % of control | T/C (dose: 200.0 mg/kg/injection, schedule: Q04DX002 (ip), vehicle: Klucel (hydroxypropylcellulose) (HPC)): 104 % of control | T/C (dose: 400.0 mg/kg/injection, schedule: Q04DX002 (ip), vehicle: Klucel (hydroxypropylcellulose) (HPC)): 99 % of control

C=CCn1/c(=N\NC(=O)c2ccncc2)sc2ccccc21
T/C (dose: 6.25 mg/kg/injection, schedule: Q01DX009 (ip), vehicle: Klucel (hydroxypropylcellulose) (HPC)): 114 % of control | T/C (dose: 12.5 mg/kg/injection, schedule: Q01DX009 (ip), vehicle: Klucel (hydroxypropylcellulose) (HPC)): 100 % of control | T/C (dose: 25.0 mg/kg/injection, schedule: Q01DX009 (ip), vehicle: Klucel (hydroxypropylcellulose) (HPC)): 103 % of control

CC(=O)OC1OC(=O)C(C)(C(C)=O)C1C (stereo not given)
T/C (dose: 12.5 mg/kg/injection, schedule: Q01DX005 (ip), vehicle: distilled water + alcohol): 100 % of control | T/C (dose: 25.0 mg/kg/injection, schedule: Q01DX005 (ip), vehicle: distilled water + alcohol): 100 % of control

CCOP(O)(=S)OCC.[Fe]
T/C (dose: 25.0 mg/kg/injection, schedule: Q01DX001 (ip), vehicle: saline with Tween-80): 89 % of control | T/C (dose: 33.0 mg/kg/injection, schedule: Q01DX001 (ip), vehicle: saline with Tween-80): 96 % of control | T/C (dose: 50.0 mg/kg/injection, schedule: Q01DX001 (ip), vehicle: saline with Tween-80): 94 % of control | T/C (dose: 50.0 mg/kg/injection, schedule: Q04DX003 (ip), vehicle: saline): 97 % of control | T/C (dose: 75.0 mg/kg/injection, schedule: Q01DX001 (ip), vehicle: saline with Tween-80): 90 % of control and 95 % of control | T/C [12]: 90 % of control | T/C (dose: 100.0 mg/kg/injection, schedule: Q04DX003 (ip), vehicle: saline): 101 % of control | T/C (dose: 200.0 mg/kg/injection, schedule: Q04DX003 (ip), vehicle: saline): 100 % of control | T/C (dose: 400.0 mg/kg/injection, schedule: Q04DX003 (ip), vehicle: saline): 90 % of control

COC1C2OC(C)(C)OC2OC1C(C)N(C)O (stereo not given)
T/C [4]: 103 % of control | T/C (dose: 100.0 mg/kg/injection, schedule: Q01DX001 (ip), vehicle: saline): 116 % of control | T/C [5]: 106 % of control | T/C (dose: 200.0 mg/kg/injection, schedule: Q01DX001 (ip), vehicle: saline): 104 % of control | T/C [6]: 103 % of control | T/C (dose: 400.0 mg/kg/injection, schedule: Q01DX001 (ip), vehicle: saline): 99 % of control

CNC(=S)ON1CCCCC1
T/C [11]: 111 % of control | T/C [16]: 108 % of control

O/N=C/c1cc(I)cc(I)c1O
T/C [7]: 90 % of control | T/C [8]: 99 % of control | T/C [9]: 99 % of control

COc1nc2[nH]ccc2c(=O)[nH]1
T/C [13]: 94 % of control | T/C [14]: 86 % of control | T/C [15]: 96 % of control

Cc1ccc(C)n1-c1ccsc1C(=O)NNC(=O)CCl
T/C (dose: 7.5 mg/kg/injection, schedule: Q01DX005 (ip), vehicle: Klucel (hydroxypropylcellulose) (HPC)): 101 % of control | T/C (dose: 15.0 mg/kg/injection, schedule: Q01DX005 (ip), vehicle: Klucel (hydroxypropylcellulose) (HPC)): 99 % of control | T/C (dose: 30.0 mg/kg/injection, schedule: Q01DX005 (ip), vehicle: Klucel (hydroxypropylcellulose) (HPC)): 100 % of control

COc1ccc2c(N=[N+]=[N-])ccnc2c1
T/C [13]: 89 % of control | T/C [14]: 89 % of control

CC1(C)CC(=O)C(CSCS)=C(O)C1
T/C [4]: 114 % of control | T/C [5]: 99 % of control | T/C [6]: 92 % of control

CCC1(O)CC(OC2CC(O)C(O)CO2)c2c(O)c3c(c(O)c2C1C(=O)OC)C(=O)c1cccc(O)c1C3=O (stereo not given)
T/C (dose: 1.56 mg/kg/injection, schedule: Q01DX009 (ip), vehicle: other): 90 % of control | T/C (dose: 3.13 mg/kg/injection, schedule: Q01DX009 (ip), vehicle: other): 88 % of control | T/C (dose: 6.25 mg/kg/injection, schedule: Q01DX009 (ip), vehicle: other): 101 % of control | T/C (dose: 12.5 mg/kg/injection, schedule: Q01DX009 (ip), vehicle: other): 115 % of control | T/C (dose: 25.0 mg/kg/injection, schedule: Q01DX009 (ip), vehicle: other): 92 % of control

CCOc1c(N=Nc2cccc(Cl)c2)c(-c2ccccc2)nn1C(N)=S
T/C [7]: 111 % of control | T/C [8]: 101 % of control | T/C [9]: 96 % of control

CC(=O)OCC(OC(C)=O)C(Cl)CCl (stereo not given)
T/C (dose: 50.0 mg/kg/injection, schedule: Q01DX005 (ip), vehicle: saline): 103 % of control | T/C (dose: 100.0 mg/kg/injection, schedule: Q01DX005 (ip), vehicle: saline): 101 % of control | T/C (dose: 200.0 mg/kg/injection, schedule: Q01DX005 (ip), vehicle: saline): 107 % of control

COCCN(CCOC)C1C2=C(CCCC2)OS(=O)(=O)C1c1ccccc1 (stereo not given)
T/C (dose: 60.0 mg/kg/injection, schedule: Q01DX005 (ip), vehicle: Klucel (hydroxypropylcellulose) (HPC)): 101 % of control | T/C (dose: 120.0 mg/kg/injection, schedule: Q01DX005 (ip), vehicle: Klucel (hydroxypropylcellulose) (HPC)): 105 % of control | T/C (dose: 240.0 mg/kg/injection, schedule: Q01DX005 (ip), vehicle: Klucel (hydroxypropylcellulose) (HPC)): 104 % of control
